From ChEMBL document CHEMBL1201862, “PubChem BioAssay data set” (2004)
Calls of active or inactive are those of the source.

Key:
[1] = biological target: Dual specificity protein kinase CLK4 (Homo sapiens, UniProt Q9HAZ1); assay type: functional
[2] = biological target: Serine/threonine-protein kinase pim-3 (Homo sapiens, UniProt Q86V86); assay type: functional;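 note: value obtained as one member of a broad kinase panel profiling effort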
[3] = biological target: Serine/threonine-protein kinase pim-1 (Homo sapiens, UniProt P11309); assay type: functional
Chain of Serine/threonine-protein kinase pim-1 (P11309 whole entry): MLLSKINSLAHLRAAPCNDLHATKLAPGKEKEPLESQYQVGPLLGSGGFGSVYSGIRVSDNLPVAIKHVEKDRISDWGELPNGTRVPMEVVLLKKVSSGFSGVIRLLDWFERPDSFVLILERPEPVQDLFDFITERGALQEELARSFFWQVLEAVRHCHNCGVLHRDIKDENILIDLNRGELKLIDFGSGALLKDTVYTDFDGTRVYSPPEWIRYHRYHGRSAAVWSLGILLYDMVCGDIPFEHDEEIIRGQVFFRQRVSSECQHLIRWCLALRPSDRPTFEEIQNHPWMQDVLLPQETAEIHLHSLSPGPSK

[4] = biological target: DNA dC->dU-editing enzyme APOBEC-3G (Homo sapiens, UniProt Q9HC16); assay: inhibition of APOBEC3G ssDNA deamination – biochemical, fluorescence, single-stranded DNA substrate, SAR follow-up (AID 602136); assay type: functional; settings: read-out: IC50_Mean
Chain of DNA dC->dU-editing enzyme APOBEC-3G (Q9HC16 whole entry): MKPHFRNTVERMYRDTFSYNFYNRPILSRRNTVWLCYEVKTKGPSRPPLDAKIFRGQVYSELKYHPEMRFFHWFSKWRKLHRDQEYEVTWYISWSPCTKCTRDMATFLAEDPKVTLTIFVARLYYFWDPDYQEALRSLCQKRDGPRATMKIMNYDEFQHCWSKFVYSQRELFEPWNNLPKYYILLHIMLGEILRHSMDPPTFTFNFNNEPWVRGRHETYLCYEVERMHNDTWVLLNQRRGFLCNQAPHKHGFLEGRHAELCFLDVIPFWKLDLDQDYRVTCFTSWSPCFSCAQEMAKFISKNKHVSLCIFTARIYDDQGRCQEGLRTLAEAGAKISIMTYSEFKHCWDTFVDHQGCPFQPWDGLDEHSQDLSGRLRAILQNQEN

[5] = biological target: DNA dC->dU-editing enzyme APOBEC-3A (Homo sapiens, UniProt P31941); assay: SAR analysis of small molecule inhibitors of APOBEC3A DNA Deaminase via a fluorescence-based single-stranded DNA deaminase assay.; assay type: functional; settings: read-out: IC50_Mean
Chain of DNA dC->dU-editing enzyme APOBEC-3A (P31941 whole entry): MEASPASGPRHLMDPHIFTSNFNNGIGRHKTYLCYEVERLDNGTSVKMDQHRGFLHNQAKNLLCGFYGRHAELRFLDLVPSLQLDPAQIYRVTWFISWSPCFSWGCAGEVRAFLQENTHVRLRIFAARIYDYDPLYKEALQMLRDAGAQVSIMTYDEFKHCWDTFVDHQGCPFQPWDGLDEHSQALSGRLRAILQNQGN

[6] = cAMP pathway inhibition in counterscreen cell line – TR-FRET cAMP detection, counter-screen for MC4R biased antagonist project, dose response (AID 602305); assay type: functional, cell-based;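 note: U2OS cells stimulated with forskolin near its EC80 as the cAMP inducer; potency is for inhibition of forskolin-stimulated cAMP signaling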
[7] = system: Streptococcus sp. 'group A'; assay: Streptococcus pyogenes SK(-)GAS viability under kanamycin – luminescence, BacTiterGlo, confirmation, counter-screen for streptokinase expression inhibitor project, dose response (AID 1900); assay type: functional, organism-based
[8] = biological target: Glucose-6-phosphate 1-dehydrogenase (Homo sapiens, UniProt P11413); assay: inhibition of Homo sapiens G6PD, dose series – biochemical, fluorescence, selectivity assay for P. falciparum G6PD inhibitor project, dose response (AID 504792); assay type: functional
Chain of Glucose-6-phosphate 1-dehydrogenase (P11413 whole entry): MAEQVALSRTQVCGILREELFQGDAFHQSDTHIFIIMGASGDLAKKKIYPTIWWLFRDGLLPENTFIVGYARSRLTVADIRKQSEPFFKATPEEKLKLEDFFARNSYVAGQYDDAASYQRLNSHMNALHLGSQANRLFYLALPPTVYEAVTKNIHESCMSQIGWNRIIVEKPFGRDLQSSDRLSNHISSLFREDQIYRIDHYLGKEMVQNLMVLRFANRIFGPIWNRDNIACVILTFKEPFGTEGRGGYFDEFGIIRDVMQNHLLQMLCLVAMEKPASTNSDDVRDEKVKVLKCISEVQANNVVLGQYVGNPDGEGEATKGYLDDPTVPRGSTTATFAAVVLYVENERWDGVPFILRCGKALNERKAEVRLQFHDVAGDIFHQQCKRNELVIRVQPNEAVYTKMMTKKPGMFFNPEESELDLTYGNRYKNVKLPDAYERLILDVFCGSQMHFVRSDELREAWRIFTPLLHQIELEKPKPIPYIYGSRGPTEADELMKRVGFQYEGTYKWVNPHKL

[9] = biological target: T1, Streptokinase A (Streptococcus pyogenes serotype M1, UniProt P10520); assay: viability-normalized secreted streptokinase activity reduction – plasminogen activation absorbance, OD405, dose response (AID 1914); assay type: functional, Streptococcus pyogenes M1 GAS;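 note: secreted streptokinase activity via plasminogen activation per viability signal from cell pellet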
T1 sequence (P10520 whole entry): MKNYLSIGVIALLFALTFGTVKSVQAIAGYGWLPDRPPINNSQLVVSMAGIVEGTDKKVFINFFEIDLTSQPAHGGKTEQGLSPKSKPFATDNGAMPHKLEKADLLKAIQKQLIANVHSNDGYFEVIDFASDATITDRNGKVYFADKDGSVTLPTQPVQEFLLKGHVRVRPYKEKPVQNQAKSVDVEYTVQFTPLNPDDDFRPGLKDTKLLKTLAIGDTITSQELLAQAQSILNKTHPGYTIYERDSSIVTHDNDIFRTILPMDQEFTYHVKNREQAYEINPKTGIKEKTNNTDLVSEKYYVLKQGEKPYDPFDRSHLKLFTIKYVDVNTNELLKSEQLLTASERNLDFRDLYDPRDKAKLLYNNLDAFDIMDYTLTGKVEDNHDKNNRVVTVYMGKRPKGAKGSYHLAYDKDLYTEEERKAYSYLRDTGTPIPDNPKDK

[10] = biological target: Melanocortin receptor 4 (Homo sapiens, UniProt P32245); assay: inhibitors of MC4R cAMP signaling – cell-based, TR-FRET, biased antagonists, dose response (AID 602298); assay type: functional;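 note: antagonist potency against agonist-stimulated cAMP production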
Chain of Melanocortin receptor 4 (P32245 whole entry, the tested form may be a part): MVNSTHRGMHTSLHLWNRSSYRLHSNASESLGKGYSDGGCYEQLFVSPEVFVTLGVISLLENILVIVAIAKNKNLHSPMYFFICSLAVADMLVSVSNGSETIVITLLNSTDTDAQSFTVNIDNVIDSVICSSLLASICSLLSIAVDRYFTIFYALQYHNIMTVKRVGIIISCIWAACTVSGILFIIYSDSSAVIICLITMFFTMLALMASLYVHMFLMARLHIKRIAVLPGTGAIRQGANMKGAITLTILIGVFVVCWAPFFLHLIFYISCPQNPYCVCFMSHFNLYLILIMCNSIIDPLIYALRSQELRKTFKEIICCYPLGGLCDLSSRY

[11] = system: CHO; assay: CHO cell viability loss, potency – luminescence, cytotoxicity control for TLR9-MyD88 binding inhibitor project, dose response (AID 588339); assay type: functional, cell-based, hamster; settings: Cricetulus griseus;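 note: CHO cells stably coexpressing TLR9 and MyD88 fusions from primary screen; compound exposure lasted 48 hours before viability readout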
[12] = biological target: Heat shock protein HSP 90-alpha (Homo sapiens, UniProt P07900); assay type: functional, organism-based
[13] = biological target: Beta Lactamase (Pseudomonas aeruginosa, UniProt Q932Y6); assay: BLA reporter interference, concentration series – BLA reporter cells, FRET fluorescence, artefact control for TLR9-MyD88 binding inhibitor project, dose response (AID 588341); assay type: cell-based;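 note: cell based assay in CHO-K1 cells stably expressing beta-lactamase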
Chain of Beta Lactamase (Q932Y6 whole entry): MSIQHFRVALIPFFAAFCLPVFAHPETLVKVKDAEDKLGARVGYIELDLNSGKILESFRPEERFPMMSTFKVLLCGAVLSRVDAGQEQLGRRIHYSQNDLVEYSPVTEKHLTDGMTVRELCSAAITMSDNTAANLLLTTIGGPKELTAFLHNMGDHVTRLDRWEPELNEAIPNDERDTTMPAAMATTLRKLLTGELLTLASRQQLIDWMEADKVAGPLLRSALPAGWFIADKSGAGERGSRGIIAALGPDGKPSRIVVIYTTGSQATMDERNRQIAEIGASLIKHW

[14] = Trypanosoma cruzi growth suppression in host cells – NIH3T3 host cells, beta-gal luminescence, confirmation (AID 2044); assay type: functional, cell-based;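 note: intracellular parasites grown in NIH/3T3 mouse fibroblasts as host cells; luminescent beta-galactosidase reporter signal from transgenic T. cruzi replicating inside host cells; inhibitors lower the luminescence signal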
[15] = system: Streptococcus; assay: GAS UMAA2166 growth inhibition – luminescence, BacTiterGlo, counter-screen for streptokinase expression inhibitor project, dose response (AID 1915); assay type: functional, organism-based;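 note: potency for reduction of bacterial viability or growth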
[16] = NIH3T3 cell viability loss – ATP luminescence, mouse fibroblasts, counter-screen, dose response (AID 2010); assay type: functional, cell-based;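 note: cells exposed to compound for about 90 hours before reading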
[17] = THP-1 cell cytotoxicity, cytotoxicity control, set 4 (AID 504911); assay type: functional; settings: Mycobacterium tuberculosis
[18] = HepG2 cell cytotoxicity, dose response, cytotoxicity control, set 3 (AID 504853); assay type: functional; settings: Mycobacterium tuberculosis
[19] = Vero cell cytotoxicity, cytotoxicity control for M. tuberculosis inhibitor project, purified and synthesized samples, set 3 (AID 504684); assay type: functional
[20] = THP-1 cell cytotoxicity, dose response, cytotoxicity control, set 3 (AID 504852); assay type: functional; settings: Mycobacterium tuberculosis
[21] = HepG2 cell cytotoxicity, cytotoxicity control, set 4 (AID 504910); assay type: functional; settings: Mycobacterium tuberculosis
[22] = A Cell Based Secondary Assay to Explore Cytotoxicity in THP-1 Cells of Compounds that Modulate Mycobacterium tuberculosis in Media Containing Glycerol versus Media without Glycerol (2).; assay type: functional
[23] = A Cell Based Secondary Assay to Explore Cytotoxicity in HepG2 Cells of Compounds that Modulate Mycobacterium tuberculosis in Media Containing Glycerol versus Media without Glycerol (2).; assay type: functional
[24] = cells; assay type: functional

Chain of Dual specificity protein kinase CLK4 (Q9HAZ1 whole entry): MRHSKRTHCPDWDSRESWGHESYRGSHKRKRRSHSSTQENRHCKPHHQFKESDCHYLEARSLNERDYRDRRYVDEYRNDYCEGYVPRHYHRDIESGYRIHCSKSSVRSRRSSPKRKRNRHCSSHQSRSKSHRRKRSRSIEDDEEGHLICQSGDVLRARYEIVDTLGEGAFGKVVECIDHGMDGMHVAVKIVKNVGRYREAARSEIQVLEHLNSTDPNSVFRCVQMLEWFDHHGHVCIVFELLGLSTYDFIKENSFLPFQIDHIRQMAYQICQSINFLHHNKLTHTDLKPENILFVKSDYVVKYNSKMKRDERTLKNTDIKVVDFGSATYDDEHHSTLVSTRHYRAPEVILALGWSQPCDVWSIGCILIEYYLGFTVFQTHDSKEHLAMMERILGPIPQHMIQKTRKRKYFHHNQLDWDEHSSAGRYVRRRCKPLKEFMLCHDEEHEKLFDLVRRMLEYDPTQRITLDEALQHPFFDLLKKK

O=c1[nH]cnc2c(-c3ccccc3)c(C(F)(F)F)sc12
active: Ki [1] 2 µM | Ki [2] 2.51 µM | Ki [3] 1.26 µM

CC(=O)c1c(C)[nH]c(C(=O)CN(C)CC(=O)Nc2ccccc2Cl)c1C
inactive: IC50 [4] > 99 µM | IC50 [5] > 99 µM

Cc1ccc(NC(=O)c2cc(N3C(=O)C=CC3=O)ccc2N2CCOCC2)cc1Cl
active: EC50 [7] 12 µM | EC50 [9] 6.68 µM | IC50 [10] 8.43 µM | IC50 [11] 1.7 µM | AC50 [12] < 0.195 µM | IC50 [13] 9.48 µM | EC50 [14] 2.01 µM | EC50 [15] 13.4 µM | EC50 [16] 6.37 µM
inactive: IC50 [6] 28.6 µM | IC50 [8] 48.1 µM

Nc1c(C(=O)NC2CCCCC2)nsc1C(=O)OCC(=O)NC1CCCCC1
active: CC50 [17] > 100 µM | CC50 [18] > 50 µM | CC50 [19] > 100 µM | CC50 [20] > 100 µM | CC50 [21] > 50 µM | CC50 [22] > 100 µM | CC50 [23] > 50 µM | IC50 [24] 1.88 µM
